1 compound from article PMC6049504 (RNA, 2018) can be followed below.

Common to all, as to assay: biochemical
The target of experiment [1] is TkTrm10 (Thermococcus kodakarensis, UniProt Q5JD38, D206N/D245N).
Experiment [2] deals with TkTrm10 (Thermococcus kodakarensis, UniProt Q5JD38).
For experiment [3], the target named is TkTrm10 (Thermococcus kodakarensis, UniProt Q5JD38, D206A/D245A).
For experiment [4], the target named is TkTrm10 (Thermococcus kodakarensis, UniProt Q5JD38, D206L).
TkTrm10 (Thermococcus kodakarensis, UniProt Q5JD38, D206L), sequence (Q5JD38 whole entry D206L): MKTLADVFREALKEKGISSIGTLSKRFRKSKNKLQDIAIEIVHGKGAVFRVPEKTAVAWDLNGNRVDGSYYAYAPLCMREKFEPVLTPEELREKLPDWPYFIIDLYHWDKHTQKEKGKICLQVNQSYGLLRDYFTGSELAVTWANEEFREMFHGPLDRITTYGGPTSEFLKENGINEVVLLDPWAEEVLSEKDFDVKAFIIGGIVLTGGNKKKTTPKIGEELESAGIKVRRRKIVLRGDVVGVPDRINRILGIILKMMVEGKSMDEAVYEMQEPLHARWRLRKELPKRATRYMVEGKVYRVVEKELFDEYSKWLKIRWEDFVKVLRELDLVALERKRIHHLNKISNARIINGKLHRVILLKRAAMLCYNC

TkTrm10 (Thermococcus kodakarensis, UniProt Q5JD38, D206N/D245N), sequence (Q5JD38 whole entry D206N/D245N): as the sequence (Q5JD38 whole entry D206L) above, with L206N, D245N counted along it
TkTrm10 (Thermococcus kodakarensis, UniProt Q5JD38), sequence (Q5JD38 whole entry): as the sequence (Q5JD38 whole entry D206L) above, with L206D counted along it
TkTrm10 (Thermococcus kodakarensis, UniProt Q5JD38, D206A/D245A), sequence (Q5JD38 whole entry D206A/D245A): as the sequence (Q5JD38 whole entry D206L) above, with L206A, D245A counted along it

Consider `C[S+](CC[C@H](N)C(=O)O)C[C@H]1O[C@@H](n2cnc3c(N)ncnc32)[C@H](O)[C@@H]1O` (stereo partly shown) [SAM], for which the equilibrium dissociation constant (Kd) on TkTrm10 [1] was 19.3 ± 3.4 µM; on TkTrm10 [2] it was 9.4 ± 1.2 µM; at TkTrm10 [3], 20.4 ± 2.9 µM; at TkTrm10 [4], 68 ± 19 µM.

As usually defined, the Kd is a measure of binding affinity in units of concentration. A low value points to tighter binding.
